The results in this text go back to PubChem BioAssay (NCI).

SMILES strings stand for the structures.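 Tested at 5 concentrations; 48 h exposure; 96-well plates; endpoints linearly interpolated, else capped at highest concentration. Here, GI50 denotes the concentration required for 50% inhibition of growth. At the TGI there is no net growth.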

Among the test systems are M14 melanoma; HCT-116 colon; SNB-19 CNS; A498 renal; NCI/ADR-RES ovarian; SK-MEL-2 melanoma; PC-3 prostate; NCI-H226 lung; TK-10 renal; OVCAR-4 ovarian.
What all share (test): growth of human tumour cells (NCI), 48 h

Turning to `CS[C@@]1(C(=O)Nc2ccc3[nH]nc(-c4ccc(OC(C)C)nc4)c3c2)CCN(CC(=O)N2CC=C(c3ccc(-c4ncn(C)n4)cc3)CC2)C1`, the GI50 in the assay with M14 melanoma was 0.032 µM; in the assay with HCT-116 colon, 0.161 µM; in the assay on SNB-19 CNS it was > 100 µM; in the assay on A498 renal, 0.176 µM; with NCI/ADR-RES ovarian, 12.6 µM; in the assay with SK-MEL-2 melanoma it was 0.0571 µM. Also, the GI50 was 6.56 µM with PC-3 prostate, > 100 µM in the assay on NCI-H226 lung and 0.237 µM with TK-10 renal. In addition, the TGI in the assay on HCT-116 colon was > 100 µM; with SNB-19 CNS, > 100 µM; with A498 renal it was 0.641 µM; with NCI/ADR-RES ovarian, > 100 µM; in the assay on SK-MEL-2 melanoma, 1.11 µM; in the assay on PC-3 prostate, > 100 µM. Moreover, the TGI with NCI-H226 lung and in the assay with TK-10 renal was > 100 µM in each case.

Turning to `O=C(CC1(O)C(=O)Nc2c(Cl)ccc(Cl)c21)c1ccc(C2CC2)cc1` (stereo unspecified), the GI50 in the assay on M14 melanoma is 0.422 µM; in the assay on HCT-116 colon, 0.375 µM; in the assay on SNB-19 CNS, 1.13 µM; in the assay with OVCAR-4 ovarian it was 12.8 µM; in the assay with A498 renal it was 0.183 µM; in the assay with NCI/ADR-RES ovarian, 0.406 µM. Further, the GI50 in the assay on SK-MEL-2 melanoma was 2.06 µM; in the assay with PC-3 prostate it was 1.38 µM; with NCI-H226 lung, 3.05 µM; in the assay on TK-10 renal it was 11.9 µM. Moreover, the TGI with M14 melanoma came out at 3.25 µM; in the assay on HCT-116 colon, 6.05 µM; in the assay on SNB-19 CNS, 16.9 µM; in the assay with OVCAR-4 ovarian, 32.2 µM; in the assay on A498 renal, 0.754 µM; in the assay with NCI/ADR-RES ovarian, 14.7 µM. For the same compound, the TGI in the assay with SK-MEL-2 melanoma stood at 8.83 µM; in the assay on PC-3 prostate it was 16.6 µM; in the assay with NCI-H226 lung, 25.5 µM; with TK-10 renal it was 29.1 µM.

Take `O=C(Nc1ccc(S(=O)(=O)NC2CCCCCC2)cc1)C(c1ccccc1)S(=O)(=O)c1ccc(F)cc1` (stereo unspecified): the GI50 in the assay on M14 melanoma is 0.514 µM; in the assay on HCT-116 colon, 0.185 µM; in the assay on SNB-19 CNS, 0.622 µM; with OVCAR-4 ovarian it was 0.444 µM; with A498 renal, 0.87 µM; with NCI/ADR-RES ovarian, 1.24 µM. Further, the GI50 is 0.449 µM with SK-MEL-2 melanoma, 0.295 µM in the assay with PC-3 prostate, 0.39 µM in the assay on NCI-H226 lung and 0.331 µM in the assay on TK-10 renal. For the same compound, the TGI in the assay on M14 melanoma worked out at 2.55 µM; in the assay on HCT-116 colon it was 1.7 µM; with SNB-19 CNS, 37.2 µM; in the assay on OVCAR-4 ovarian, 4.16 µM; in the assay with A498 renal, 2.08 µM; with NCI/ADR-RES ovarian, 4.66 µM. The TGI in the assay with SK-MEL-2 melanoma was 2.08 µM; in the assay with PC-3 prostate it was 2.19 µM; in the assay with NCI-H226 lung, 3.43 µM; in the assay with TK-10 renal, 3.66 µM.

On to `COc1cc(/C=C/C(=O)c2ccc(Nc3nc(Nc4ccccc4)nc(Nc4ccc(Cl)cc4)n3)cc2)cc(OC)c1OC`, for which the GI50 with M14 melanoma is 15.1 µM; in the assay on HCT-116 colon it was 2.68 µM; with SNB-19 CNS it was > 32.5 µM; with OVCAR-4 ovarian, 14 µM; with A498 renal it was 28.2 µM; in the assay on NCI/ADR-RES ovarian it was 31.5 µM. Besides, the GI50 with SK-MEL-2 melanoma was > 32.5 µM; in the assay with NCI-H226 lung, 7.66 µM; in the assay on TK-10 renal it was 19.1 µM. The TGI in the assay with M14 melanoma, in the assay with HCT-116 colon, in the assay on SNB-19 CNS, with OVCAR-4 ovarian, in the assay with A498 renal and with NCI/ADR-RES ovarian was > 32.5 µM each time. The TGI with SK-MEL-2 melanoma, in the assay with NCI-H226 lung and with TK-10 renal was > 32.5 µM in each case.

Turning to `C=C(C)[C@@H]1CC[C@]2(C)[C@H](C=CC3=C4C[C@@](C)(CO)CC[C@]4(C)CC[C@]32C)[C@@]1(C)CCCN`, the GI50 in the assay with M14 melanoma is 1.69 µM; in the assay with HCT-116 colon, 1.69 µM; in the assay on SNB-19 CNS, 1.75 µM; in the assay with OVCAR-4 ovarian, 1.53 µM; with A498 renal, 1.54 µM; in the assay on NCI/ADR-RES ovarian it was 1.74 µM. Further, the GI50 in the assay with SK-MEL-2 melanoma was 1.92 µM; in the assay on PC-3 prostate, 1.7 µM; with TK-10 renal, 1.78 µM. In addition, the TGI in the assay on M14 melanoma was 3.34 µM; in the assay with HCT-116 colon, 3.21 µM; in the assay with SNB-19 CNS it was 3.17 µM; with OVCAR-4 ovarian, 3.09 µM; with A498 renal, 2.9 µM; in the assay on NCI/ADR-RES ovarian, 3.37 µM. In addition, the TGI came to 3.58 µM in the assay with SK-MEL-2 melanoma, 3.28 µM with PC-3 prostate and 3.36 µM in the assay on TK-10 renal.

As for `O=C1c2cccc3cc([N+](=O)[O-])cc(c23)C(=O)N1O`, the TGI with M14 melanoma, in the assay on HCT-116 colon, in the assay with SNB-19 CNS, in the assay on OVCAR-4 ovarian, with NCI/ADR-RES ovarian and in the assay on SK-MEL-2 melanoma was > 100 µM throughout. Further, the TGI is > 100 µM with PC-3 prostate, > 100 µM with NCI-H226 lung and 83.6 µM in the assay on TK-10 renal.

Regarding `Cc1sc(/N=C2/NC(=O)CS2)nc1-c1nc(/N=C2/NC(=O)CS2)sc1C`, the GI50 in the assay with HCT-116 colon is 15.7 µM; in the assay with SNB-19 CNS, > 50 µM; with A498 renal it was 47.1 µM; in the assay with NCI/ADR-RES ovarian, 21.2 µM; in the assay with SK-MEL-2 melanoma, > 50 µM; with PC-3 prostate, 16.8 µM. Also, the GI50 in the assay on NCI-H226 lung and with TK-10 renal was > 50 µM each time. The TGI in the assay with HCT-116 colon, in the assay on SNB-19 CNS, in the assay on A498 renal, with NCI/ADR-RES ovarian, in the assay on SK-MEL-2 melanoma and in the assay with PC-3 prostate was > 50 µM in each case. Moreover, the TGI in the assay on NCI-H226 lung and in the assay on TK-10 renal was > 50 µM each time.

With `C=C1CO[C@@H]2C[C@@H]1CC/C(C)=C/CC/C(C)=C/CC[C@@]2(C)O`, the GI50 was 17.9 µM with M14 melanoma; 17.2 µM in the assay with HCT-116 colon; 23.3 µM in the assay with SNB-19 CNS; 21.7 µM in the assay on OVCAR-4 ovarian; 35.8 µM in the assay with A498 renal; 18.5 µM with NCI/ADR-RES ovarian. Besides, the GI50 in the assay on SK-MEL-2 melanoma is 27.4 µM; in the assay with PC-3 prostate, 15.7 µM; in the assay on TK-10 renal it was 18.4 µM. For the same compound, the TGI with M14 melanoma was 32.9 µM; in the assay with HCT-116 colon, 31.4 µM; with SNB-19 CNS it was 51.6 µM; in the assay on OVCAR-4 ovarian, 43.4 µM; in the assay with A498 renal, > 76.2 µM; with NCI/ADR-RES ovarian, 36 µM. Also, the TGI with SK-MEL-2 melanoma was > 64 µM; in the assay on PC-3 prostate, 33.6 µM; with TK-10 renal it was 36.2 µM.

For the compound `COc1ccc(-n2sc(=O)n(Cc3ccc(COC(=O)C(C)c4ccc(CC(C)C)cc4)cc3)c2=O)cc1` (stereo unspecified), the GI50 in the assay with M14 melanoma is 2.6 µM; with HCT-116 colon it was 0.979 µM; in the assay on SNB-19 CNS it was 7.38 µM; in the assay on OVCAR-4 ovarian, 0.92 µM; in the assay on NCI/ADR-RES ovarian, 7.5 µM; in the assay on SK-MEL-2 melanoma it was 8.01 µM. The GI50 in the assay with PC-3 prostate is 5.63 µM; in the assay on NCI-H226 lung, 11.9 µM; in the assay on TK-10 renal, 0.997 µM. Besides, the TGI in the assay on M14 melanoma worked out at 9.45 µM; with HCT-116 colon, 2.08 µM; in the assay on SNB-19 CNS, 14.5 µM; in the assay with OVCAR-4 ovarian, 1.99 µM; in the assay with NCI/ADR-RES ovarian, 20 µM; in the assay on SK-MEL-2 melanoma it was 17 µM. Further, the TGI with PC-3 prostate came to 12.8 µM; in the assay with NCI-H226 lung it was 33.2 µM; with TK-10 renal, 2.17 µM.

`COc1cccc(Nc2nccc(Nc3ccc4[nH]ncc4c3)n2)c1`: the GI50 is 1.35 µM in the assay on M14 melanoma; 1.59 µM in the assay on HCT-116 colon; 1.46 µM with OVCAR-4 ovarian; 1.65 µM with A498 renal; 1.54 µM in the assay with NCI/ADR-RES ovarian; 1.62 µM with SK-MEL-2 melanoma. The GI50 in the assay on PC-3 prostate is 1.34 µM; in the assay with NCI-H226 lung it was 1.82 µM; in the assay with TK-10 renal, 1.42 µM. The TGI in the assay with M14 melanoma came to 2.81 µM; with HCT-116 colon it was 3.23 µM; in the assay with OVCAR-4 ovarian, 4.03 µM; with A498 renal it was 5.3 µM; in the assay on NCI/ADR-RES ovarian it was 4.36 µM; in the assay on SK-MEL-2 melanoma, 3.27 µM. Further, the TGI was 3.12 µM with PC-3 prostate, 4.46 µM in the assay on NCI-H226 lung and 2.82 µM with TK-10 renal.

For the compound `Oc1[nH]c2ccc(Cl)cc2c1/C=c1/ccc2c(c1)N=C(c1cc(F)cc(F)c1)N=2`, the GI50 with M14 melanoma is 2.18 µM; in the assay on SNB-19 CNS, > 100 µM; with OVCAR-4 ovarian, 2.77 µM; in the assay with NCI/ADR-RES ovarian, 2.32 µM; with SK-MEL-2 melanoma it was 3.24 µM; in the assay on PC-3 prostate it was 3.44 µM. The GI50 is > 100 µM with NCI-H226 lung and 7.22 µM with TK-10 renal. For the same compound, the TGI is 5.66 µM in the assay with M14 melanoma; > 100 µM in the assay on SNB-19 CNS; > 100 µM with OVCAR-4 ovarian; 5.87 µM with NCI/ADR-RES ovarian; 8.52 µM in the assay with SK-MEL-2 melanoma; > 100 µM in the assay with PC-3 prostate. Further, the TGI with NCI-H226 lung and with TK-10 renal was > 100 µM in each case.

`CN(NC(=O)CC(=O)NN(C)C(=S)c1ccc(Cl)cc1)C(=S)c1ccc(Cl)cc1`: the GI50 in the assay on M14 melanoma is 14.1 µM; with HCT-116 colon it was 10.7 µM; with SNB-19 CNS, 23.1 µM; with OVCAR-4 ovarian, 19.6 µM; with NCI/ADR-RES ovarian, 13.6 µM; with SK-MEL-2 melanoma, 22.7 µM. For the same compound, the GI50 in the assay with PC-3 prostate is 10.7 µM; in the assay on NCI-H226 lung it was 13.2 µM; with TK-10 renal, 23 µM. Besides, the TGI is 59.3 µM with M14 melanoma; > 100 µM with HCT-116 colon; > 100 µM in the assay on SNB-19 CNS; > 100 µM with OVCAR-4 ovarian; 63.7 µM in the assay on NCI/ADR-RES ovarian; 81.8 µM in the assay with SK-MEL-2 melanoma. The TGI with PC-3 prostate was 56.5 µM; in the assay with NCI-H226 lung it was 45.3 µM; in the assay with TK-10 renal, > 100 µM.
